Measured values reported in patent US9290503B2, “Tricyclic compound derivatives useful in the treatment of neoplastic diseases, inflammatory disorders and immunomodulatory disorders” (CHEMBRIDGE CORPORATION, priority 2006, dated 2016).

Legend:
Type in all cases: cell-based
[1] = test system: HEK293 (human normal embryonic kidney); experiment: Cell proliferation assay, MTT, HEK293; conditions: HEK293, 72 h, standard 3-day proliferation assay, read-out: HEK IC50
Excerpt: (§1) IGF1R and other tyrosine kinase inhibitors can inhibit the proliferation of certain cancer cell lines indicating their possible therapeutic utility for treating the corresponding cancer types. Cancer cell lines of interest and control normal lines, including CHO, HEK293, BA/F3, COLO205, PC3, DU145, MCF7, Panc1, ACHN, Hep G2, H460, K562, TT, U87-MG, CAOV-3, SK-MEL5, Karpas 299 and human multiple myeloma cell lines H929, MM1s, MM1r, UTMC2, CPM2, KMS11, My5, KMS12PE, My7, JJN3, KMS18, U266, SKMM2, RPMI-8226 are plated in white, clear-bottomed 384-well cell culture plates at 2500-5000 cells per well and supplied with dilutions of tested compounds After a desired period of time (typically 3 days), the number of viable cells is quantitated by using Cell Titer-Glo Luminescent Cell Viability Assay (Promega), a cell proliferation assay system based on detection of total amount of ATP present as a measure of cell metabolic activity. The plated cells are mixed with the Cell Titer-Glo developing reagent and counted in a luminescence multiwell plate reader according to the standard manufacturer's protocol to generate IC50 curves for cell proliferation inhibition. […] Alternatively, viable cells are quantitated by using the conventional colorimetric MTT assay. […] The formazan is then solubilized, and the concentration determined by optical density at 570 nm. […]

[2] = test system: CHO (chinese hamster ovary); experiment: Cell proliferation assay, MTT, CHO; conditions: Cricetulus griseus, 72 h, standard 3-day proliferation assay
Excerpt: as §1

H929 = experiment: Cell proliferation assay, MTT, H929; conditions: Homo sapiens, NCI-H929, 72 h, standard 3-day proliferation assay
Excerpt: as §1

MM1s = experiment: Cell proliferation assay, MTT, MM1s; conditions: Homo sapiens, MM1.S, 72 h, standard 3-day proliferation assay
Excerpt: as §1

MM1r = experiment: Cell proliferation assay, MTT, MM1r; conditions: Homo sapiens, MM.1R, 72 h, standard 3-day proliferation assay
Excerpt: as §1

UTMC2 = experiment: Cell proliferation assay, MTT, UTMC2; conditions: Homo sapiens, UTMC2, 72 h, standard 3-day proliferation assay
Excerpt: as §1

CPM2 = experiment: Cell proliferation assay, MTT, CPM2; conditions: Homo sapiens, 72 h, standard 3-day proliferation assay
Excerpt: as §1

KMS11 = experiment: Cell proliferation assay, MTT, KMS11; conditions: Homo sapiens, KMS-11, 72 h, standard 3-day proliferation assay
Excerpt: as §1

My5 = experiment: Cell proliferation assay, MTT, My5; conditions: Homo sapiens, 72 h, standard 3-day proliferation assay
Excerpt: as §1

KMS12PE = experiment: Cell proliferation assay, MTT, KMS12PE; conditions: Homo sapiens, KMS-12-PE, 72 h, standard 3-day proliferation assay
Excerpt: as §1

My7 = experiment: Cell proliferation assay, MTT, My7; conditions: Homo sapiens, 72 h, standard 3-day proliferation assay
Excerpt: as §1

JJN3 = experiment: Cell proliferation assay, MTT, JJN3; conditions: Homo sapiens, JJN-3, 72 h, standard 3-day proliferation assay
Excerpt: as §1

KMS18 = experiment: Cell proliferation assay, MTT, KMS18; conditions: Homo sapiens, KMS18, 72 h, standard 3-day proliferation assay
Excerpt: as §1

U266 = experiment: Cell proliferation assay, MTT, U266; conditions: Homo sapiens, U-266, 72 h, standard 3-day proliferation assay
Excerpt: as §1

SKMM2 = experiment: Cell proliferation assay, MTT, SKMM2; conditions: Homo sapiens, SK-MM-2, 72 h, standard 3-day proliferation assay
Excerpt: as §1

RPMI-8226 = experiment: Cell proliferation assay, MTT, RPMI-8226; conditions: Homo sapiens, RPMI-8226, 72 h, standard 3-day proliferation assay
Excerpt: as §1

IGF1 receptor = molecular target: T1, IGF1 receptor (Homo sapiens, UniProt P08069); experiment: ELISA-based assay of IGF1 receptor autophosphorylation inhibition in cells; conditions: MCF7 cells, read-out: MCF7 IGF1R Phosphorylation IC50
T1 construct: MCF7 human breast cancer cells expressing IGF1 receptor; endogenous in cells; host or cells: MCF7 human breast cancer cells
Protocol: In another embodiment, compounds that interact with the IGF1R kinase domain are tested in a cell-based assay system. In accordance with this embodiment, cells expressing a full-length IGF1 receptor or a fragment thereof containing the IGF1R kinase domain, are contacted with a candidate or a control compound and the ability of the compound to block tyrosine kinase activity of IGF1R within a cell is determined. This assay may be used to screen a single compound or a large library of candidate compounds. […] The ability of the candidate compound to inhibit IGF1R kinase activity can be determined by methods known to those skilled in the art. For example, the inhibition can be determined by ELISA-type assay or Western blot analysis with cell lysates or immunoprecipitated IGF1R receptor using various anti-IGF1R and anti-phosphotyrosine antibodies.
In general, cells expressing IGF1R are treated with modulators (i.e., inhibitors or activators) of IGF1R kinase activity and cell lysates are produced from these treated cells. IGF1Rs are isolated from the lysate by immunoprecipitation and analyzed for phosphotyrosine content. Alternatively, or in addition, cellular protein substrates phosphorylated by IGFR may be immunoprecipitated from the lysates and their degree of tyrosine phosphorylation determined. […]

T1 sequence (P08069 31-1367): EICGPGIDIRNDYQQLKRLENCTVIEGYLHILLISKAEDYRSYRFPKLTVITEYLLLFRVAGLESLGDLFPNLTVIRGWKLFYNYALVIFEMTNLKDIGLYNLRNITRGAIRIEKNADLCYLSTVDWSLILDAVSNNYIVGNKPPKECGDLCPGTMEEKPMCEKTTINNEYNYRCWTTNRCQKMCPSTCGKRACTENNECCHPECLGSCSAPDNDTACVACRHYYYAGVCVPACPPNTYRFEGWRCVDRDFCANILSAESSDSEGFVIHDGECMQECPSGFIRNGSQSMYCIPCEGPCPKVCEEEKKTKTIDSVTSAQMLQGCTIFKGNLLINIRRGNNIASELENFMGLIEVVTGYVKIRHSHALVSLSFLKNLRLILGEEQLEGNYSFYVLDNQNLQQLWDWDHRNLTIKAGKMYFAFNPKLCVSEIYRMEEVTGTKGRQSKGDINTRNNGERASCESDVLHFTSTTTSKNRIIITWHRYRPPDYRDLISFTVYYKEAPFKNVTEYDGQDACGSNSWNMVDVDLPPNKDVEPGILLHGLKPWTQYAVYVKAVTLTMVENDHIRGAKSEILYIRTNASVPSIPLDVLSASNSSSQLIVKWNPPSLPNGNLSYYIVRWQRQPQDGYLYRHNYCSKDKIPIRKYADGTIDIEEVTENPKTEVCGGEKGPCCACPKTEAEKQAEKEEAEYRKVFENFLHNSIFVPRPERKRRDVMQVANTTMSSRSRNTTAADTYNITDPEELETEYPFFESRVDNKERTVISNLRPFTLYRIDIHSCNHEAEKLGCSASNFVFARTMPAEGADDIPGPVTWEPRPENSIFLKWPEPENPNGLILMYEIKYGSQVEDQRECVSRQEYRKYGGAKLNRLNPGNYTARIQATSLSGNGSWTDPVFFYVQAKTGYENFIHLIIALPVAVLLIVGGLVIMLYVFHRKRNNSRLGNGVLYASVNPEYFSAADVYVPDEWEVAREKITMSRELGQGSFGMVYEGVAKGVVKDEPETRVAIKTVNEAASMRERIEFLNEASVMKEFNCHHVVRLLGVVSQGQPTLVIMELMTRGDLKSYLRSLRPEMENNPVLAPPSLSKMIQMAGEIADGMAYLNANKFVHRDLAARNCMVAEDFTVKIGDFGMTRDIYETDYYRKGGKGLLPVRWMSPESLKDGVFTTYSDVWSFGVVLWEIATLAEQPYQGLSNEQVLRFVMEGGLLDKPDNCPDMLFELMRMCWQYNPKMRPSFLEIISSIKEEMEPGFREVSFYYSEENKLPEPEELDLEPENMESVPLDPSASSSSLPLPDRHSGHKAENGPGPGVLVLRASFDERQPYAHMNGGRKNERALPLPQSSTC

| SMILES | IC50 [1] | IC50 [2] | IC50 (H929) | IC50 (MM1s) | IC50 (MM1r) | IC50 (UTMC2) | IC50 (CPM2) | IC50 (KMS11) | IC50 (My5) | IC50 (KMS12PE) | IC50 (My7) | IC50 (JJN3) | IC50 (KMS18) | IC50 (U266) | IC50 (SKMM2) | IC50 (RPMI-8226) | IC50 (IGF1 receptor) |
| --- | --- | --- | --- | --- | --- | --- | --- | --- | --- | --- | --- | --- | --- | --- | --- | --- | --- |
| Cc1ccc(OCC(=O)CNc2cc[nH]c(=O)c2C2Nc3cc4c(cc3N2)C(=O)N(C2CCN(CCS(C)(=O)=O)CC2)C4)c(C)c1 (centres unmarked) | ≥ 20 µM | ≥ 20 µM | 0.5 to 1 µM | 0.5 to 1 µM | 1 to 5 µM | < 0.5 µM | 1 to 5 µM | 1 to 5 µM | 5 to 20 µM | 1 to 5 µM | 1 to 5 µM | 1 to 5 µM | 5 to 20 µM | 1 to 5 µM | 1 to 5 µM | 5 to 20 µM |  |
| CN1CCC(N2C(=O)c3cc4nc(-c5c(NCC(O)c6ccncc6)cc[nH]c5=O)[nH]c4cc3C2=O)CC1 (centres unmarked) [compound 7] |  |  |  |  |  |  |  |  |  |  |  |  |  |  |  |  | > 15 µM |
